Test results as given in paper PMC12267109, “The enzyme kinetics of branched‐chain fatty acid synthesis of metazoan fatty acid synthase” (Protein Science : A Publication of the Protein Society, 2025).

Assays:
[1] = biological target: T1, metazoan fatty acid synthase (mFAS), murine FAS (Mus musculus, UniProt P19096); assay: NADPH consumption by purified mFAS, fluorescence; type: biochemical
T1 construct: gene Fasn; full length mFAS

[2] = biological target: T1, metazoan fatty acid synthase (mFAS), murine FAS; assay: NADPH consumption assay with purified mFAS; GC-MS of methyl-branched fatty acid products; type: biochemical

T1 sequence (P19096 whole entry): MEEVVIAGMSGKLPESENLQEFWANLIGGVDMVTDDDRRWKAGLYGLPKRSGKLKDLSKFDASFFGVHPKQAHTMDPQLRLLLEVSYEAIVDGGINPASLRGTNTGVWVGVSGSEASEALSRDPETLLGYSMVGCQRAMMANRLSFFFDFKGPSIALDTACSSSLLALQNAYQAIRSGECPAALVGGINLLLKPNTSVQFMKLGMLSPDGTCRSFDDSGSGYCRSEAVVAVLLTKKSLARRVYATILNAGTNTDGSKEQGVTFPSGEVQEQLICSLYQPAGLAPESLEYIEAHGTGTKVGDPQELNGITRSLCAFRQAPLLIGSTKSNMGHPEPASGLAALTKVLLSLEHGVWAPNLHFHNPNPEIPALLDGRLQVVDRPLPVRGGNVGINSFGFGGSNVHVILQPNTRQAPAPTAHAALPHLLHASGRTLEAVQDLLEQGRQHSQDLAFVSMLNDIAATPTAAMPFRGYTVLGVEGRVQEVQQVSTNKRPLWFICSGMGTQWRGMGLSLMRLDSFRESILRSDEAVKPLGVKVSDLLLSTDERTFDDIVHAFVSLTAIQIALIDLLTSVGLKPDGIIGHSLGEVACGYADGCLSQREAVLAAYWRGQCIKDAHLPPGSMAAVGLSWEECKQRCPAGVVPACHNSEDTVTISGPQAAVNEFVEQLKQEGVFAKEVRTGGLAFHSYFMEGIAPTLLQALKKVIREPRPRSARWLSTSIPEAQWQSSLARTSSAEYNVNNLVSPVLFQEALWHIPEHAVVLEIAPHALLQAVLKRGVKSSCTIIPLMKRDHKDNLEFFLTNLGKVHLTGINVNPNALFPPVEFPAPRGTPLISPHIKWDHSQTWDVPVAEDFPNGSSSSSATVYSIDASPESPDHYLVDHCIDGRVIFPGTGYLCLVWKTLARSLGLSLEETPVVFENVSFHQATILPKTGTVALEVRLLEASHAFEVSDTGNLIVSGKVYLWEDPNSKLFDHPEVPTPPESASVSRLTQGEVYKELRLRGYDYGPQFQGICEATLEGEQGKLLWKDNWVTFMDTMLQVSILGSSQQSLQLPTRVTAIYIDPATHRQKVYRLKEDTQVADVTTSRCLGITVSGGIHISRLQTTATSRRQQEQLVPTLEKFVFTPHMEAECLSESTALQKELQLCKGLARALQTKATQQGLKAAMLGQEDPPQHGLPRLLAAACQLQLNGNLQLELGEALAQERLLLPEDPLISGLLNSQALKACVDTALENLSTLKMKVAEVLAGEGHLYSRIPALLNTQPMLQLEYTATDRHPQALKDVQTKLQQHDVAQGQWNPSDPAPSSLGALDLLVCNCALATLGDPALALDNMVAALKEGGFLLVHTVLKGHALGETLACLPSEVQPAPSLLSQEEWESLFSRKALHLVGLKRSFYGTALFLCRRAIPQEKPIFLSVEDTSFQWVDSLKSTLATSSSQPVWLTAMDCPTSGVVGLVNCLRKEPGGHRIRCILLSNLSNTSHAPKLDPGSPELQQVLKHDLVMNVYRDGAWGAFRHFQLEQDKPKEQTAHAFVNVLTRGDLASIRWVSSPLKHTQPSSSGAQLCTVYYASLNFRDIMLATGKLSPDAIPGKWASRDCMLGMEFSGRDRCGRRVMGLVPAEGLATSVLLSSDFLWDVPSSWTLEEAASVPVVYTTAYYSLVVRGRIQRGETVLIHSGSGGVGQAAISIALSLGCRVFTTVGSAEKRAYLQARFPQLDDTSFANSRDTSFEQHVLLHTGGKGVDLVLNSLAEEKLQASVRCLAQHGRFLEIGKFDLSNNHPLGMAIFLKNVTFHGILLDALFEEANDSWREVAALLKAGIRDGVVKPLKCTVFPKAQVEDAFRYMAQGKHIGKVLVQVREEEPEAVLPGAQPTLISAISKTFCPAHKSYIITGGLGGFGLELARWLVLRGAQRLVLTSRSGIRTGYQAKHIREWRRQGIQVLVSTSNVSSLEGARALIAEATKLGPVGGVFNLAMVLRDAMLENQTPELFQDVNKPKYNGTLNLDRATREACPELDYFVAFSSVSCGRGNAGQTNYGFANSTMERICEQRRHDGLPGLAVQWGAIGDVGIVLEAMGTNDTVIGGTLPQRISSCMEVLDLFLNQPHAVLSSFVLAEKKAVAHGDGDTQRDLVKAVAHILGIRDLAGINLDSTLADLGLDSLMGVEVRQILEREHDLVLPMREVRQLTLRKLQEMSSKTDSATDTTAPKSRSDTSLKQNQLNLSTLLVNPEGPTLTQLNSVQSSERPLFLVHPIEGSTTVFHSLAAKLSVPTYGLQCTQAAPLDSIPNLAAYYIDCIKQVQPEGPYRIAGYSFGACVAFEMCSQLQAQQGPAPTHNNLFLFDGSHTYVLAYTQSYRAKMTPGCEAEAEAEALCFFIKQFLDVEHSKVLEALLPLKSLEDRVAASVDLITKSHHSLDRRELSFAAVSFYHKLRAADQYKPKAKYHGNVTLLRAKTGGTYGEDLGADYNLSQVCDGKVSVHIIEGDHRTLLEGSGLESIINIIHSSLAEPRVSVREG

## NC(=O)C1=CN([C@@H]2O[C@H](COP(=O)(O)OP(=O)(O)OC[C@H]3O[C@@H](n4cnc5c(N)ncnc54)[C@H](OP(=O)(O)O)[C@@H]3O)[C@@H](O)[C@H]2O)C=CC1 [NADPH]
[1]
  NADPH consumption by purified mFAS, fluorescence: (NADPH) consumption of the integrated β‐ketoacyl reductase and enoyl reductase domains

## CC(C(=O)O)C(=O)SCCNC(=O)CCNC(=O)[C@H](O)C(C)(C)COP(=O)(O)OP(=O)(O)OC[C@H]1O[C@@H](n2cnc3c(N)ncnc32)[C@H](O)[C@@H]1OP(=O)(O)O (mixture of isomers) [methylmalonyl-CoA]
[2]
  NADPH consumption assay with purified mFAS; GC-MS of methyl-branched fatty acid: we observed increasing activity with increasing metmal‐CoA in the absence of starter substrates
